SMILES strings stand for the structures. Read-outs that look alike come from different tables or passages of the source.

Broadly, the inhibition is the change of the read-out against control, counted positive when it falls.

Holding throughout (experiment): HotSpot kinase profiling
Common to all, as to type: biochemical

One experiment deals with T1, PLK1 (Homo sapiens, UniProt P53350).
T1 construct: purchased Reaction Biology Corp
In a few lines: (§1)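 Radio-isotope P81 filtration format. Substrate + required cofactors in reaction buffer, kinase added, 2 h RT. Stop, wash with 0.1% phosphoric acid, detect. % inhibition vs DMSO; mean of duplicates where repeated.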

For a further experiment, the target named is T2, GRK5 (Homo sapiens, UniProt P34947).
T2 construct: purchased Reaction Biology Corp
T2 sequence (P34947 whole entry): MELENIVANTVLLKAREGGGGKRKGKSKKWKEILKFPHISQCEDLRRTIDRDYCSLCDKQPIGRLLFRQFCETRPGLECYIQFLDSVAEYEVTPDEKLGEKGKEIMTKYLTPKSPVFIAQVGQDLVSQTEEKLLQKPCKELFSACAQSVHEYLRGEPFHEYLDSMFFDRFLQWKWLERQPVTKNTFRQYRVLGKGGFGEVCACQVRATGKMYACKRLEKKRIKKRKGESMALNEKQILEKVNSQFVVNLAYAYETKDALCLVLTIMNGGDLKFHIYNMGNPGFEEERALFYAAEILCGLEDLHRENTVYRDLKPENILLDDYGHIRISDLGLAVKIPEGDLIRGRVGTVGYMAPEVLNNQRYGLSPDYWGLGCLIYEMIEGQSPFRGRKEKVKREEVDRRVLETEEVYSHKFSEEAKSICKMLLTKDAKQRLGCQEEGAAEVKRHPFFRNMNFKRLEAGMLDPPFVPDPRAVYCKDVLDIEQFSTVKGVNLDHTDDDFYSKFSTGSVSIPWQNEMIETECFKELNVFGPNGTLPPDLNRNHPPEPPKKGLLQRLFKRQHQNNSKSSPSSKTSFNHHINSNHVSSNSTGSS
In a few lines:
as §1

The target in a further experiment is T3, FES/FPS (Homo sapiens, UniProt P07332).
T3 construct: purchased Reaction Biology Corp
T3 sequence (P07332 whole entry): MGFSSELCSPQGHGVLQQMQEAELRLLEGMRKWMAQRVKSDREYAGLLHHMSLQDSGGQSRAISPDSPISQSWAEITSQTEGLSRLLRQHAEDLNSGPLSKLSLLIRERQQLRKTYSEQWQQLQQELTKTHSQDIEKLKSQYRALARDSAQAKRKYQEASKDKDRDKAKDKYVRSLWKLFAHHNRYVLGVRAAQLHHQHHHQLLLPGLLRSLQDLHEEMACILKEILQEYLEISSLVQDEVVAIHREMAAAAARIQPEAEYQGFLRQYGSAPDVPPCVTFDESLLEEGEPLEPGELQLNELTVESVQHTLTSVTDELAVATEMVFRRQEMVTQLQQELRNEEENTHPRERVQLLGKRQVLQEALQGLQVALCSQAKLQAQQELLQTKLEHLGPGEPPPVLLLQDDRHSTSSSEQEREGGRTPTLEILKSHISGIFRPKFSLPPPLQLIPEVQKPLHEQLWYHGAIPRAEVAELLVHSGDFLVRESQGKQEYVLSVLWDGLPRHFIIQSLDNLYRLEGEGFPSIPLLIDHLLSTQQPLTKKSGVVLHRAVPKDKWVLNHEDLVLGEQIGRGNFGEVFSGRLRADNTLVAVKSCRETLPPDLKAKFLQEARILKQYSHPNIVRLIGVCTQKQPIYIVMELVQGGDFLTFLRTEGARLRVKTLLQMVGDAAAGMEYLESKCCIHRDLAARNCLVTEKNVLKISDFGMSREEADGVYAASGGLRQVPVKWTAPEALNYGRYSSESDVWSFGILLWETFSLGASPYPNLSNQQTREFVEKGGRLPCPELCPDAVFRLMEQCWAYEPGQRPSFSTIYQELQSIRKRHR
The procedure, abridged: as §1

Another experiment has as its target T4, ARK5/NUAK1 (Homo sapiens, UniProt O60285).
T4 construct: purchased Reaction Biology Corp
T4 sequence (O60285 1-661): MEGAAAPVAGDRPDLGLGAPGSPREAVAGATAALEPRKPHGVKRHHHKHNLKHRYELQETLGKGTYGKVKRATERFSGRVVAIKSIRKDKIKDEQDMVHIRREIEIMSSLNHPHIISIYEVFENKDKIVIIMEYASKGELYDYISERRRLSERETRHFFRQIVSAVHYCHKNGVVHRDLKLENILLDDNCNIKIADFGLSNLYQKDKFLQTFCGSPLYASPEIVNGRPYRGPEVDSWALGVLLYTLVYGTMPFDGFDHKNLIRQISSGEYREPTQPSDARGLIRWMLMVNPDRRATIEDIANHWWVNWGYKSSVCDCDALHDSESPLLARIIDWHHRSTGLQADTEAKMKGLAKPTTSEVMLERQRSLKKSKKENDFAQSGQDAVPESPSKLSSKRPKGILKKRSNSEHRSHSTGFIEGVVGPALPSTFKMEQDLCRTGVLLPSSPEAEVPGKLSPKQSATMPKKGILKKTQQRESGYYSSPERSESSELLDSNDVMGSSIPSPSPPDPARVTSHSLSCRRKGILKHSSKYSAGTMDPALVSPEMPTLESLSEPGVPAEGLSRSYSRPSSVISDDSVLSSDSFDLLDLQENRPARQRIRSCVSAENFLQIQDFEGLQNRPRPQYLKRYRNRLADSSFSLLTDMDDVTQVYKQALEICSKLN
In a few lines: as §1

A further experiment addresses T5, PKCepsilon (Homo sapiens, UniProt Q02156).
T5 construct: purchased Reaction Biology Corp
T5 sequence (Q02156 1-737): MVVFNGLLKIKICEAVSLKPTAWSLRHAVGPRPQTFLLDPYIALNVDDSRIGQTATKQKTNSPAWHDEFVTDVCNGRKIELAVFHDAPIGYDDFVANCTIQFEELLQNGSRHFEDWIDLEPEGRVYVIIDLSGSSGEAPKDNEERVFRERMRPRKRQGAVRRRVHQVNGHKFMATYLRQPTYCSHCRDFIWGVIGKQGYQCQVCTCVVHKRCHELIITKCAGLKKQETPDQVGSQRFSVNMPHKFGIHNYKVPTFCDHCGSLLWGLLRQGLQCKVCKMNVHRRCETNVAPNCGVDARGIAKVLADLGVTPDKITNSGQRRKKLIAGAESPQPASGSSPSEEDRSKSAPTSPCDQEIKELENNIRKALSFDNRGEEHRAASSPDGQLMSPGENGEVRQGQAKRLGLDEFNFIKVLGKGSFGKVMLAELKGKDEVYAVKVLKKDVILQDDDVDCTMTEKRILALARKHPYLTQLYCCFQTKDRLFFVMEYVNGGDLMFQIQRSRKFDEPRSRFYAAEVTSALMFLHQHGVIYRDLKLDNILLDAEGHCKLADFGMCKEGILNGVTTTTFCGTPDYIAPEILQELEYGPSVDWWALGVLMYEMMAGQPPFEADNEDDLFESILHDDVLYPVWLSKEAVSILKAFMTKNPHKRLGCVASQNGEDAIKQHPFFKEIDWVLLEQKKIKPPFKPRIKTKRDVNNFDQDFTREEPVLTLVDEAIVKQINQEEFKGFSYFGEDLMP
In a few lines:
as §1

The target of another experiment is T6, WNK1 (Homo sapiens, UniProt Q9H4A3).
T6 construct: purchased Reaction Biology Corp
T6 sequence (Q9H4A3 whole entry): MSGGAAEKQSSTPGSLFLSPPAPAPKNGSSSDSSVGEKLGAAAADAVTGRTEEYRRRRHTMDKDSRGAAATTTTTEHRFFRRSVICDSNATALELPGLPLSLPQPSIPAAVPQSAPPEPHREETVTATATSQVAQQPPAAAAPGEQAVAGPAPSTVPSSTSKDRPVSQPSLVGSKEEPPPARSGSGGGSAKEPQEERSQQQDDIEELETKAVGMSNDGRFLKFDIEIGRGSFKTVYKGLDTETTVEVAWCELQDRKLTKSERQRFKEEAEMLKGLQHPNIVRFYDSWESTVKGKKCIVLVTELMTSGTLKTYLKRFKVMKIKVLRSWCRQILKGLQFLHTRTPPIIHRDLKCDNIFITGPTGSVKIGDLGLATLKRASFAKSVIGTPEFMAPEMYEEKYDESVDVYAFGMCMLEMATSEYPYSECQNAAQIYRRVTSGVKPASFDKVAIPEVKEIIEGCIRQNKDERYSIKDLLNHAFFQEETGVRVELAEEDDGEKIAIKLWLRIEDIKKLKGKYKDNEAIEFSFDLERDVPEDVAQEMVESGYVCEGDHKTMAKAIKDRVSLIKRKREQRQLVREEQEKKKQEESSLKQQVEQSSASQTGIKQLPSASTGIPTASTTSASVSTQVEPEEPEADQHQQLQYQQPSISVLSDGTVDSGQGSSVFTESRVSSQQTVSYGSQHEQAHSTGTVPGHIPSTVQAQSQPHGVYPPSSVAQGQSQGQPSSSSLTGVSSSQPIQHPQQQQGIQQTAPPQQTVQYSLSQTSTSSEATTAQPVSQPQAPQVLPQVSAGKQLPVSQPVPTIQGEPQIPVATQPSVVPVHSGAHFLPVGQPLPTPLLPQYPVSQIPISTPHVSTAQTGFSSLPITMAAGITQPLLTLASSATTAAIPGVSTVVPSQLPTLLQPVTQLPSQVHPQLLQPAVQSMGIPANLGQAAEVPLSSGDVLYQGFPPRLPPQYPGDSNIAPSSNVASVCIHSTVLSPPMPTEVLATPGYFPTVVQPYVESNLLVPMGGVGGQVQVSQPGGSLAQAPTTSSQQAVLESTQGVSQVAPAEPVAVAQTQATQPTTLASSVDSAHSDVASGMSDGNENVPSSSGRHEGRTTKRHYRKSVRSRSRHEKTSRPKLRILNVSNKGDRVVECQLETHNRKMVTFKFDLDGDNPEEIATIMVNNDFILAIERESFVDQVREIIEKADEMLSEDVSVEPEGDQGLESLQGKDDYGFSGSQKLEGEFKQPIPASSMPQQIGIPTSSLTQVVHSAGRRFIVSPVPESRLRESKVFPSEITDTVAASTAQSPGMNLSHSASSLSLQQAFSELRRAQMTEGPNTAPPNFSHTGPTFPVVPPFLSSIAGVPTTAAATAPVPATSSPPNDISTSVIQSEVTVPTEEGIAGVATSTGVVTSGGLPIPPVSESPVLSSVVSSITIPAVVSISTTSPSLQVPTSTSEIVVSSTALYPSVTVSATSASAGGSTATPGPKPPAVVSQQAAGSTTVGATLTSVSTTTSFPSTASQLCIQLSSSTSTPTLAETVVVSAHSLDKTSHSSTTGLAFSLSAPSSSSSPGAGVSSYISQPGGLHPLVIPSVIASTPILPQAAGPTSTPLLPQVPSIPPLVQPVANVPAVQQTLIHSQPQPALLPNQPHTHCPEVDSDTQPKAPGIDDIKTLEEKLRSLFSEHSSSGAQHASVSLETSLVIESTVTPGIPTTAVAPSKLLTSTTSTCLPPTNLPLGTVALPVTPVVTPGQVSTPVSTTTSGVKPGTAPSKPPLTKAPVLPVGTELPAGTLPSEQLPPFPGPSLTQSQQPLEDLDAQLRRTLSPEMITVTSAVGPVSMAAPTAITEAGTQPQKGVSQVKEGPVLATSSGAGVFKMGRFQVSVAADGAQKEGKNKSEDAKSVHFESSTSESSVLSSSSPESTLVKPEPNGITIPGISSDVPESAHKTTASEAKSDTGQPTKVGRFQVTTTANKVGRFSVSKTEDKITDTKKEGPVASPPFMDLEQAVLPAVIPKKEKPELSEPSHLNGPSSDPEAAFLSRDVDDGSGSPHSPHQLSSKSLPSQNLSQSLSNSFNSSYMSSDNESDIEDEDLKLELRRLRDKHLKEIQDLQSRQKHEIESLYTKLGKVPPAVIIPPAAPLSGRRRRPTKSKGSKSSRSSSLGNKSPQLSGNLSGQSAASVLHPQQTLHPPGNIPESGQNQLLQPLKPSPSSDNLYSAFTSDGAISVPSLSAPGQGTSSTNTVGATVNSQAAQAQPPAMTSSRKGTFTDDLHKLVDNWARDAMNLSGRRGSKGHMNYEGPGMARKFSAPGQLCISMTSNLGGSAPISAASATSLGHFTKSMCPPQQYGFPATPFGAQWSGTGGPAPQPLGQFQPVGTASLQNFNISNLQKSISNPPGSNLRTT
The procedure, abridged:
as §1

A further experiment deals with T7, CAMK4 (Homo sapiens, UniProt Q16566).
T7 construct: purchased Reaction Biology Corp
T7 sequence (Q16566 1-473): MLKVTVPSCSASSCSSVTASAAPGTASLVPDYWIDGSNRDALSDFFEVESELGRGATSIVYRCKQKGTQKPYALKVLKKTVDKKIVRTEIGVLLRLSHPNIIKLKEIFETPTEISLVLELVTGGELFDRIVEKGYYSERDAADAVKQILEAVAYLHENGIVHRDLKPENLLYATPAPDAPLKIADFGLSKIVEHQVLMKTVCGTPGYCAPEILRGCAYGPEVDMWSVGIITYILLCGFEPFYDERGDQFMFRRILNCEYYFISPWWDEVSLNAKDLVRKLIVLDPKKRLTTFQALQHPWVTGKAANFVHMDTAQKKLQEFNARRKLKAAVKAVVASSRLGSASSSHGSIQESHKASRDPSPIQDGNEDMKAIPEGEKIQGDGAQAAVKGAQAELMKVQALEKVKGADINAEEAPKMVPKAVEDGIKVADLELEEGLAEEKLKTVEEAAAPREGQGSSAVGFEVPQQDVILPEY
In a few lines:
as §1

The mark [1] stands for this setting: read-out: % Enzyme Activity (relative to DMSO controls) Run 1.
The mark [2] stands for this setting: read-out: % Enzyme Activity (relative to DMSO controls) Run 2.

T1 sequence (P53350 whole entry): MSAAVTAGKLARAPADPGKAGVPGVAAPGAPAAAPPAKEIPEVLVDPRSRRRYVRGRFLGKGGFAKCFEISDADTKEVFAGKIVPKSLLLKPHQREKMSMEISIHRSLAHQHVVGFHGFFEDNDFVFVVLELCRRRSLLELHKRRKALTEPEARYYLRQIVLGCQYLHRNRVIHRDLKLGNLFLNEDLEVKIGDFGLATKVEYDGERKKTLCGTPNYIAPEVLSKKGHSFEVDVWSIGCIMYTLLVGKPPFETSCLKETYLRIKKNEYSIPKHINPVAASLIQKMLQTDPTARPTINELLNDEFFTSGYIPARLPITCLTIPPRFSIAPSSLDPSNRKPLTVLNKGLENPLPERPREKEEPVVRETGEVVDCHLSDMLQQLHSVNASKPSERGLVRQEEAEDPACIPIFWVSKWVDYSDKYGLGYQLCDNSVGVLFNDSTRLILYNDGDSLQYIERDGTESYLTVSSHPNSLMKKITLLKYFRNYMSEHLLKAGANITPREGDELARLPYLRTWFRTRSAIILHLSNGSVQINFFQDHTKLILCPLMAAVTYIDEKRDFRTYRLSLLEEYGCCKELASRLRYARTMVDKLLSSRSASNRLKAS

As for `C=CC(=O)Nc1cccc(Nc2nc(Nc3ccc(OCCOC)c(F)c3)ncc2F)c1` [Compound 2], the inhibition at 3 µM against PLK1 was 8.06%; against GRK5 it was -2.59%; against FES/FPS it was 35%; at ARK5/NUAK1 it was 86.7%; at PKCepsilon it was 6.29%; against WNK1, -12.1%. Further, the inhibition at 3 µM against CAMK4 is -2.26%. The remaining activity at 3 µM on PLK1 (setting [1]) worked out at 91.1%; at PLK1 (setting [2]), 92.8%; at GRK5 (setting [1]), 103%; at GRK5 (setting [2]), 102%; on FES/FPS (setting [1]), 64%; on FES/FPS (setting [2]), 66%. Also, the remaining activity at 3 µM on ARK5/NUAK1 (setting [1]) is 13.3%; on ARK5/NUAK1 (setting [2]) it was 13.3%; at PKCepsilon (setting [1]), 93.2%; at PKCepsilon (setting [2]), 94.2%; on WNK1 (setting [1]), 112%; at WNK1 (setting [2]), 112%. In addition, the remaining activity at 3 µM at CAMK4 (setting [1]) and at CAMK4 (setting [2]) was 102% throughout.
